According to article PMC8667942 (Journal of Enzyme Inhibition and Medicinal Chemistry, 2021):

Target: T1, CYP1A2 (Homo sapiens, UniProt P05177)
T1 construct: from tissue; host or cells: pooled human liver microsomes
T1 sequence (P05177 1-516): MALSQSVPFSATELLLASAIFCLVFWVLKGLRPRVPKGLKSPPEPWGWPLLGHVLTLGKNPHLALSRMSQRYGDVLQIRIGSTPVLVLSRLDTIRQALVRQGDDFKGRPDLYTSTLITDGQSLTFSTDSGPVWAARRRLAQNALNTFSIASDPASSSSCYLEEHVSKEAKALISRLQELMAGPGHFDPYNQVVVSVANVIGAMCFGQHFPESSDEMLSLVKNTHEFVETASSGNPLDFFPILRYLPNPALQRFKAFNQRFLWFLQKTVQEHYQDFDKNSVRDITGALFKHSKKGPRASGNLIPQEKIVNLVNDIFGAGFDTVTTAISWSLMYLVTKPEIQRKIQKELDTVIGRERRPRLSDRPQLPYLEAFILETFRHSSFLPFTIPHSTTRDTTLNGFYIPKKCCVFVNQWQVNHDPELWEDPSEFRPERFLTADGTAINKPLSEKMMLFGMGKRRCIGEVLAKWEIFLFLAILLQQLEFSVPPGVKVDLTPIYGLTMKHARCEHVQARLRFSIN
Assay: Direct CYP inhibition assay, pooled human liver microsomes, LC-MS/MS
Format: in vitro ADME
Details: pooled HLMs, up to 50 μM, phenacetin substrate
Procedure: Reactions were incubated in eight-well strips placed in an 8 × 12 racks (1.2 ml; VWR, Emeryville, CA). The incubation mixtures (final volume, 200 μL) contained 0.2 mg/mL HLMs, 0.1 M phosphate buffer (pH 7.4), 1 mM NADPH, and various CYP isoform-specific substrate cocktail sets (A set: phenacetin, coumarin, amodiaquine, S-mephenytoin, dextromethorphan, and midazolam; B set: bupropion, tolbutamide, chlorzoxazone, and testosterone). […] Substrates were dissolved and serially diluted with acetonitrile to the required concentration in all experiments. […] The reactions were incubated at 37 °C in a shaking water bath. The reactions were terminated by placing the incubation tubes on ice, adding 200 μL of cold acetonitrile containing carbamazepine (100 nM) and 4-methylumbelliferone (500 nM) as an internal standard after 10 min, and agitating with a vortex mixer before centrifugation. The samples for each enzyme assay were centrifuged at 3,000 × g for 20 min at 4 °C, and supernatants of the individual reaction samples and pooled cocktail incubation samples (A set: B set, 1:1) were analysed using LC-MS/MS.
Sample injection volume was 10 μL, and separation was performed on an Atlantis™ dC18 column (2.1 × 50 mm i.d., 3 μm; Waters, Milford, MA, USA) and Luna™5u C18 column (2.0 × 30 mm i.d.; Phenomenex, Torrance, CA, USA) with a SecurityGuard™ C18 guard column (2.0 × 4.0 mm i.d.; Phenomenex, Torrance, CA, USA) maintained at 30 °C. The column was pre-equilibrated in 100% v/v solvent A (deionized water containing 0.1% v/v formic acid)/0% v/v solvent B (acetonitrile containing 0.1% v/v formic acid) at a flow rate of 0.4 ml/min. […] Quadrupoles Q1 and Q3 were set on unit resolution. The samples were analysed via multiple reaction monitoring (MRM) and enhanced product ion (EPI) scan mode. The turbo ion spray interface was operated in the positive ion mode at 5,500 V. The operating conditions were determined as follows: ion source temperature, 600 °C; nebulising gas flow, 50 L/min; auxiliary gas flow, 4.0 L/min; curtain gas flow, 20 L/min; collision gas (nitrogen) pressure 3.6 × 10^−5 Torr. Nitrogen gas was used for CUR, CAD, and NEB. The MRM transitions, collision energies and retention time were determined for each metabolite. The samples were analysed via MRM as described in our previous study. The scan dwell time was set at 0.08 s for every channel. Data acquisition and analysis was performed using the Analyst™ software (version 1.5.2; Applied Biosystems, Foster City, CA, USA).

O=[N+]([O-])c1ccc(CNc2nc(NCc3cccc(C(F)(F)F)c3)nc3[nH]cnc23)cc1 [TNP, N^6-[(4-nitrophenyl)methyl]-N^2-[[3-(trifluoromethyl)phenyl]methyl]-9H-purine-2,6-diamine]
inhibitory effect on CYP1A2: no inhibitory effect
